Values joined by “and” are separate entries in the source; they are usually repeats but may differ in a detail not shown here. Equal values may be shown once.
Experiments:
[1] = tested on: renal proximal tubule epithelial (RPTE) cells; experiment: Time course of apoptosis, TUNEL (FIG. 3); format: cell-based, human
Description: FIG. 3 is a graph showing the effect of CDME on apoptosis in renal proximal tubule epithelial (RPTE) cells. Semi-confluent RPTE cells were treated with either 0.25 mM CDME or TNF-a, harvested at 0.5, 1, 3, and 6 hours, stained with TUNEL, and enumerated by fluorescence microscopy. Each experiment was done in triplicate. The control (time 0) cystine content was 0.6 nmol/mg protein. After 1 hour incubation, the cystine content was 2.2 nmol/mg protein.
2. TUNEL Assay • The TUNEL assay employs terminal deoxynucleotidyl transferase (TdT) to label the ends of double stranded DNA breaks, which occur in apoptotic cells, with FITC-conjugated dUTP. Cells were fixed in 4% buffered formalin, washed, incubated in permeabilization solution (0.1% Triton X-100 in 0.1% Na Citrate) for 2 minutes on ice and then stained with 25 μL of TdT/45 μL of labeled dNTP mix for 40 minutes at 37° C. The cells were visually enumerated by fluorescence microscopy, scoring a minimum of five fields (250 to 300 cells) for fluorescence in triplicate followed by counting all cells in the same field by light microscopy, with a minimum of 750 cells scored per condition. The apoptosis rate is the total number of cells that fluoresce divided by the total cells in the field. […]

[2] = tested on: RPTE cells; experiment: Annexin V and propidium iodide staining; format: cell-based, human; conditions: TNF-a after loading with 0.1 mM CDME
Description: 3. The Annexin V Assay • Annexin V-propidium iodide (PI) staining was performed as described by the manufacturer (Annexin V Fluos kit directions, Roche Laboratories) one time after TNF-a stimulation. D. Cystine Binding Protein Assay
Lysosomal cystine loading of RPTE cells was accomplished by exposure to 0.1 mM or 0.25 CDME in normal REGM for 1 hour before treatment with or without apoptotic triggers.
Exposure of RPTE cells to TNF-a after cystine loading by exposure to 0.1 mM CDME and analysis by Annexin V and Propidium iodide staining yielded 4.3% Annexiv V positive cells and zero PI positive cells at 1 h after exposure, 9.5% and 1.7% at 3 hours and 25.3% and 9.1% at 6 hours. The proportion of necrotic RPTE cells increased with duration of exposure to CDME, but remained substantially less than the number of those that are apoptotic.

[3] = tested on: black mice; experiment: Toxicity study of CDME in mice; format: in vivo, mouse; conditions: intraperitoneal injection, 500 μL in PBS
Description: (§1) CDME was evaluated in mice for cystine generation in response to varying doses as follows: A stock solution of CDME in PBS was prepared having a concentrations of 1.8 g CDME/500 μL PBS. The stock solution was diluted to generate solutions for administration. 500 μL of diluted solutions were injected intraperitoneally into black mice (body mass ˜0.03 kg). All injections were performed in duplicate.
Mice given effective dosages of 5,000 mg CDME/kg body mass or higher died. […] The CDME-injected mice contained close to 100-fold increases in intralysosomal cystine.

[4] = tested on: liver of black mice; experiment: Liver cystine concentration after CDME injection (CBP and BCA assays); format: in vivo, mouse
Description: Intracellular lysosomal free cystine was determined using a cystine binding protein (CBP) assay (Oshima et al, 1974 J. Biol. Chem., 249:6033-6039). CBP was procured from Riverside Scientific. The assay has a sensitivity of 0.1 μM. Total cell protein was determined by a modification of the Lowry method (Lowry O. et al 1951 J. Biol. Chem., 193:265-275). Statistical analyses were performed using paired t test for means with SSPS for Windows. Results are mean+/−1.0 SD (FIG. 3).
as §1
Following administration of the solutions of Table 6, the endogenous cystine concentrations in two organs (kidney and liver) were examined for the 6 mice, i.e., the CDME-injected mice as well as black, heterozygous, and wild-type control mice. The analysis was performed using the cystine binding protein CBP assay of Example 1 and the Bicinchoninic Acid BCA assay (Pierce Biotechnology) for total protein concentration.

COC(=O)[C@@H](N)CSSC[C@H](N)C(=O)OC [CDME, cystine dimethyl ester]
rate of apoptosis compared with TNF-a alone ([1]; 0.25 mM CDME alone): equal to that induced by exposure to TNF-a alone | time to maximum rate of apoptosis ([1]; CDME, followed by lysis and release from the dish): ≤ 6 h | Annexin V positive cells ([2]; 1 h after exposure): 4.3% | PI positive cells ([2]; 1 h after exposure): zero | Annexin V positive cells ([2]; 3 hours): 9.5% | PI positive cells ([2]; 3 hours): 1.7% | Annexin V positive cells ([2]; 6 hours): 25.3% | PI positive cells ([2]; 6 hours): 9.1% | effective dosage at which mice died [3]: ≥ 5,000 mg CDME/kg body mass | Liver Cystine Concentration ([4]; 5,000 mg CDME/kg intraperitoneally, Mouse #1 and #2): 230 nmol cystine/mg protein and 150 nmol cystine/mg protein | Liver Cystine Concentration ([4]; 10,000 mg CDME/kg intraperitoneally, Mouse #3): 6.7 nmol cystine/mg protein
